Laboratory results: patent US20110033946A1, “DETECTION OF SHORT-CHAIN FATTY ACIDS IN BIOLOGICAL SAMPLES” (HEMAQUEST PHARMACEUTICALS, INC., priority 2009, published 2011)
Where “and” joins values, the source holds several entries; their conditions need not be identical. Equal entries are not always repeated. Where two headings read alike, the source gives them in different places.

What was measured:
[1] = Freeze/thaw cycle stability in human plasma; format: physicochemical; details: three freeze/thaw cycles at approximately −70° C.
Experimental: (§1) The following samples were also analyzed either in conjunction with one of the precision and accuracy runs or in one of the additional validation runs. Samples from six lots of control human plasma for specificity. Samples from six lots of control human plasma fortified with internal standard for specificity. Two concentration levels of unextracted QC-samples in triplicate (solvent standards) were analyzed for the evaluation of the recovery of sodium 2,2-dimethylbutyrate and DMV in human plasma. Two levels of QC samples (Low QC and High QC in triplicate) were subjected to three freeze/thaw cycles at approximately −70° C. prior to extraction to evaluate freeze/thaw stability. Two levels of QC samples (Low QC and High QC in triplicate) were placed on the bench top for approximately 17 hours prior to extraction for the evaluation of the bench top stability. Triplicate low QC samples and triplicate high QC samples were stored for one month and three months in a freezer at approximately −70° C., and then extracted and analyzed to evaluate long term stability in human plasma. Two levels of extracted QC samples (Low QC and High QC) were re-analyzed after approximately 71 hours in the autosampler at room temperature to evaluate the extract autosampler stability. Two levels of extracted QC samples (Low QC and High QC) were re-analyzed after approximately 8 hours in the freezer at approximately −20° C. to evaluate the extract freeze stability. Three aliquots of a dilution QC sample diluted 10-fold. Triplicate dilutions of the old stock solution (stored at approximately 4° C.) and new stock solutions prepared at intervals of two weeks and one month. Statistical calculations in the report tables were calculated from unrounded concentration values taken directly from the raw data. The concentration values were rounded for display purposes.
The stability of sodium 2,2-dimethylbutyrate in human plasma was evaluated at approximately −70° C. for three cycles using QC-Low and QC-High samples in triplicate. The freeze time was at least 12 to 24 hours, with a minimum thaw time of one hour. The CV % values for the QC-Low and QC-High stability samples are 3.3% and 9.8%, respectively. To calculate the RE %, the measured mean concentration was compared to the nominal concentration. The RE % values for the QC-Low and QC-High stability samples are 2.3% and −5.5%, respectively.

[2] = format: physicochemical, human; details: for Extract freezer stability, Mean concentration / Extract freezer stability, RE % (mean vs nominal): human, 8 h
Experimental: as §1
QC-Low and QC-High extract samples in triplicate were analyzed and then stored in a −20° C. freezer for approximately 8 hours. These QC samples were then re-analyzed to evaluate the extract freezer stability. The CV % values for the QC-Low and QC-High stability samples are 8.6% and 1.2%, respectively. To calculate the RE %, the measured mean concentration was compared to the nominal concentration. The RE % values for the QC-Low and QC-High stability samples are −6.3% and −13.0%, respectively.

[3] = Storage stability of quality control sample in human urine at −20° C.; format: physicochemical; details: storage temperature of −20° C.
Experimental: (§2) In method I, the mobile phase of liquid chromatography was run on 0.1% formic acid in acetonitrile, and the elution volume was 10 ul. In method II, the mobile phase was run in 0.1% formic acid in methanol/water (98/2, volume to volume), and the elution volume was 5 ul.

[4] = Bench top stability in rat plasma; format: physicochemical; details: for Bench top stability, RE % (mean vs nominal): room temperature approximately 12.5 hours
Experimental: For the remaining validation tests, a calibration curve and triplicates QCs at the low, mid and high levels were analyzed with each sample set. The following samples were also analyzed either in conjunction with one of the precision and accuracy runs or in one of the additional validation runs: Samples from six lots of control rat plasma for specificity; Samples from six lots of control rat plasma fortified with internal standard for specificity; Two concentration levels of unextracted QC-samples in triplicate (solvent standards) were analyzed for the evaluation of the recovery of sodium 2,2-dimethylbutyrate and DMV in rat plasma; Two levels of QC samples (Low QC and High QC in triplicate) were subjected to three freeze/thaw cycles at approximately −70° C. prior to extraction to evaluate freeze/thaw stability; Two levels of QC samples (Low QC and High QC in triplicate) were placed on the bench top for approximately 17 hours prior to extraction for the evaluation of the bench top stability; Triplicate low QC samples and triplicate high QC samples were stored for one month and three months in a freezer at approximately −70° C., and then extracted and analyzed to evaluate long term stability in rat plasma; Three aliquots of a dilution QC sample diluted 10-fold.
Bench top stability was evaluated at room temperature for approximately 12.5 hours. Triplicate QC-Low and QC-High samples were extracted and analyzed after these storage conditions. The CV % values for the QC-Low and QC-High stability samples are 6.3% and 11.7%, respectively. To calculate the RE %, the measured mean concentration was compared to the nominal concentration. The RE % values for the QC-Low and QC-High stability samples are 7.6% and 9.1%, respectively.

[5] = Stock solution stability at nominal 4° C. (Example 5); format: physicochemical; details: nominal temperature of 4° C.
Experimental: as §2

[6] = format: physicochemical, human; details: for Long-term freezer stability, Mean concentration / Long-term freezer stability, RE % (mean vs nominal): human
Experimental: as §1
QC-Low and QC-High plasma samples, which had been stored in a freezer at approximately −70° C. for one month and three months, were extracted in triplicate and analyzed. The CV % values for the QC-Low and QC-High stability samples range from 4.0% to 11.1%. To calculate the RE %, the measured mean concentration was compared to the nominal concentration. The RE % values for the QC-Low and QC-High stability samples range from −13.7% to 4.1%. All CV % values and RE % values are within the acceptance criteria (≦15% and ±15% respectively).

Stability after freeze/thaw cycles [1]: stable
Freeze/thaw cycle stability, Mean concentration ([1]; QC-High, nominal 40.0 μg/mL): 37.8 µg/mL
Freeze/thaw cycle stability, RE % (mean vs nominal) ([1]; QC-High, nominal 40.0 μg/mL): −5.5%
Freeze/thaw cycle stability, concentration found (replicate) ([1]; QC-High, nominal 40.0 μg/mL): 41.9 µg/mL and 36.8 µg/mL and 34.7 µg/mL
Freeze/thaw cycle stability, Mean concentration ([1]; QC-Low, nominal 0.60 μg/mL): 0.614 µg/mL
Freeze/thaw cycle stability, RE % (mean vs nominal) ([1]; QC-Low, nominal 0.60 μg/mL): 2.3%
Time stable in the extract in the freezer ([2]; human plasma extract, freezer at −20° C.): at least 8 hours
Extract freezer stability, Mean concentration ([2]; 0.6 μg/mL): 0.562 µg/mL
Extract freezer stability, RE % (mean vs nominal) ([2]; 0.6 μg/mL): −6.3%
Extract freezer stability, Mean concentration ([2]; 40 μg/mL): 34.8 µg/mL
Extract freezer stability, RE % (mean vs nominal) ([2]; 40 μg/mL): −13.0%
Time quality control sample is stable [3]: at least 111 days
Time stable on bench top ([4]; ambient bench top storage): approximately 12.5 hours
Measured concentration, QC-High ([4]; bench top room temperature, nominal 40.0 μg/mL, individual replicates): 45.6 µg/mL and 37.9 µg/mL and 47.4 µg/mL
Mean concentration, QC-Low ([4]; bench top, nominal 0.60 μg/mL): 646 ng/mL
RE %, QC-Low ([4]; bench top, nominal 0.60 μg/mL): 7.6%
Mean concentration, QC-High ([4]; bench top, nominal 40.0 μg/mL): 43600 ng/mL
RE %, QC-High ([4]; bench top, nominal 40.0 μg/mL): 9.1%
Bench top stability, RE % (mean vs nominal) ([4]; QC-High): 9.1%
Bench top stability, RE % (mean vs nominal) ([4]; QC-Low): 7.6%
Time stock solutions are stable [5]: at least 115 days
Time stable in freezer ([6]; human plasma, approximately −70° C.): up to three months
Long-term freezer stability, Mean concentration ([6]; 1 month, 0.6 μg/mL): 0.552 µg/mL
Long-term freezer stability, RE % (mean vs nominal) ([6]; 1 month, 0.6 μg/mL): −7.9%
Long-term freezer stability, Mean concentration ([6]; 1 month, 40 μg/mL): 38.2 µg/mL
Long-term freezer stability, RE % (mean vs nominal) ([6]; 1 month, 40 μg/mL): −4.6%
Long-term freezer stability, Mean concentration ([6]; 3 months, 0.6 μg/mL): 0.624 µg/mL
Long-term freezer stability, RE % (mean vs nominal) ([6]; 3 months, 0.6 μg/mL): 4.1%
Long-term freezer stability, Mean concentration ([6]; 3 months, 40 μg/mL): 34.5 µg/mL
Long-term freezer stability, RE % (mean vs nominal) ([6]; 3 months, 40 μg/mL): −13.7%
Structure (SMILES): CCC(C)(C)C(=O)[O-].[Na+] [Sodium 2,2-Dimethylbutyrate]
Freeze/thaw cycle stability, concentration found (replicate) ([1]; QC-Low, nominal 0.60 μg/mL): 0.615 µg/mL and 0.593 µg/mL and 0.633 µg/mL
Measured concentration, QC-Low ([4]; bench top room temperature, nominal 0.60 μg/mL, individual replicates): 0.600 µg/mL and 0.677 µg/mL and 0.660 µg/mL
